{
  "source": "patent US20230025600A1",
  "about": "“TREATMENT OF CANCERS WITH ANTIBODY DRUG CONJUGATES (ADC) THAT BIND TO 191P4D12 PROTEINS” (AGENSYS, INC., priority 2019, published 2023)",
  "key": {"[1]": {"system": "human lung cancer xenograft AG-L4", "assay": "Efficacy in subcutaneous established human lung cancer xenograft AG-L4 in SCID mice", "type": "in vivo", "settings": "10 mg/kg every seven days for two doses, intravenous bolus; tumors about 200 mm^3 at start; compared to control ADC", "description": "In another experiment, patient-derived lung cancer xenograft AG-L4 was maintained by serial passages in SCID mice. Stock tumors were harvested sterilely and minced into 1 mm^3 pieces. Six (6) pieces were implanted into the flank of individual SCID mice. Tumors were allowed to grow untreated until they reached an approximate volume of 200 mm^3. The Ha22-2(2,4)6.1vcMMAE and the control ADC were dosed at 10 mg/kg every seven (7) days for two doses by intravenous bolus injection. The amount of ADC administered was based on the individual body weight of each animal obtained immediately prior to dosing. Tumor growth was monitored using caliper measurements every 3 to 4 days. Tumor volume was calculated as Width^2×Length/2, where width is the smallest dimension and length is the largest dimension."}, "[2]": {"system": "human breast cancer xenograft BT-483", "assay": "Efficacy in subcutaneous established human breast cancer xenograft BT-483 in SCID mice", "type": "in vivo", "settings": "5 mg/kg every four days for four doses, intravenous bolus; tumors about 100 mm^3 at start; compared to control ADC", "description": "In this experiment, human breast cancer BT-483 cells were used to generate stock xenografts, which were maintained by serial passages in SCID mice. Stock tumors were harvested sterilely and minced into 1 mm^3 pieces. Six (6) pieces were implanted into the flank of individual SCID mice. Tumors were allowed to grow untreated until they reached an approximate volume of 100 mm^3. The Ha22-2(2,4)6.1vcMMAE and the control ADC were dosed at 5 mg/kg every four (4) days for four (4) doses by intravenous bolus injection. The amount of ADC administered was based on the individual body weight of each animal obtained immediately prior to dosing. Tumor growth was monitored using caliper measurements every 3 to 4 days. Tumor volume was calculated as Width^2×Length/2, where width is the smallest dimension and length is the largest dimension."}, "[3]": {"assay": "Population pharmacokinetic analysis in patients", "type": "in vivo, human", "excerpt": "Population pharmacokinetic analysis included data from 369 patients based on three Phase 1 studies and one Phase 2 study. Enfortumab vedotin-ejfv pharmacokinetics were characterized after single and multiple doses in patients with locally advanced or metastatic urothelial carcinoma and other solid tumors.\nSteady-state concentrations of ADC and MMAE were reached after 1 treatment cycle."}, "[4]": {"target": "T1, CYP3A4 (Homo sapiens, UniProt P08684)", "T1 construct": "from tissue; host or cells: human subjects in vivo (endogenous enzyme)", "assay": "Metabolism in vitro", "type": "in vitro ADME", "excerpt": "Enfortumab vedotin-ejfv catabolism has not been studied in humans; however, it is expected to undergo catabolism to small peptides, amino acids, unconjugated MMAE, and unconjugated MMAE-related catabolites."}, "[5]": {"target": "P-glycoprotein (P-gp) (Homo sapiens, UniProt P08183)", "sequence (P08183 whole entry)": "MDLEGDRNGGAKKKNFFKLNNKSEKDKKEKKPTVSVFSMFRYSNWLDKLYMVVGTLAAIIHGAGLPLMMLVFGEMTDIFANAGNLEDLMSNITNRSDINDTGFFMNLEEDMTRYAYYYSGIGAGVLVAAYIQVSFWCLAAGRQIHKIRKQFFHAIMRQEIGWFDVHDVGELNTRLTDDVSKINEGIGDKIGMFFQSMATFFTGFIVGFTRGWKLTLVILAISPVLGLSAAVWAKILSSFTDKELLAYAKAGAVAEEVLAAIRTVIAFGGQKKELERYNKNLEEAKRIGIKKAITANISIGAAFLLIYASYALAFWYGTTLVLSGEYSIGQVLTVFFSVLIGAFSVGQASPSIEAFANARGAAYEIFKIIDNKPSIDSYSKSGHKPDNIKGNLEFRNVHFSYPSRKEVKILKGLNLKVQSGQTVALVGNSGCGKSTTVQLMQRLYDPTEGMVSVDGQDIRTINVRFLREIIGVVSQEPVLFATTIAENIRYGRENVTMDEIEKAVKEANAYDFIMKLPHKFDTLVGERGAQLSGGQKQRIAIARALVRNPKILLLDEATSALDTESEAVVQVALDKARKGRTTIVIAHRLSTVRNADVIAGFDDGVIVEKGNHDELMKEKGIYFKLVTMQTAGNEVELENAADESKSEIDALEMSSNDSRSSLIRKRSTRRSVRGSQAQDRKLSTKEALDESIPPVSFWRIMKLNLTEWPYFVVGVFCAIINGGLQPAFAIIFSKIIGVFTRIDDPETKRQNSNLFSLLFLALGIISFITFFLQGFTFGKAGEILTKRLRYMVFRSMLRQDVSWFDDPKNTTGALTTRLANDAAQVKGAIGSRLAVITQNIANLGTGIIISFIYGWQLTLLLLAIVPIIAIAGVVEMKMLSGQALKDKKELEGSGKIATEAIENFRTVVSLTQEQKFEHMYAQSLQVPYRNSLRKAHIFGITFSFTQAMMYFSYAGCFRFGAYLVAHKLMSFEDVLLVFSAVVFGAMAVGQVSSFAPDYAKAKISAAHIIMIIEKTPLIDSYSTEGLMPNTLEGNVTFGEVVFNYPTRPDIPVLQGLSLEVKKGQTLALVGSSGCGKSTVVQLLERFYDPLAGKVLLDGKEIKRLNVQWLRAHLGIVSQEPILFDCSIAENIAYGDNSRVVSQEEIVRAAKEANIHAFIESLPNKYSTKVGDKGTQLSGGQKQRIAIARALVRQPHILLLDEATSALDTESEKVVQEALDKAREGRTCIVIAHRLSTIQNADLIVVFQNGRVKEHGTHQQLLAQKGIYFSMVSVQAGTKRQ", "assay": "Transporter systems in vitro", "type": "in vitro ADME"}, "[6]": {"system": "rat bone marrow", "assay": "Rat bone marrow micronucleus study", "type": "in vivo", "settings": "aneugenic mechanism", "excerpt": "(§1) MMAE was genotoxic in the rat bone marrow micronucleus study through an aneugenic mechanism. This effect is consistent with the pharmacological effect of MMAE as a microtubule-disrupting agent. MMAE was not mutagenic in the bacterial reverse mutation assay (Ames test) or the L5178Y mouse lymphoma forward mutation assay."}, "[7]": {"system": "bacterial reverse mutation", "assay": "Bacterial reverse mutation assay (Ames test)", "type": "cell-based", "excerpt": "as §1"}, "[8]": {"system": "L5178Y mouse lymphoma", "assay": "L5178Y mouse lymphoma forward mutation assay", "type": "cell-based", "excerpt": "as §1"}, "[9]": {"system": "acute myeloid leukemia (AML) at relapse", "settings": "administered alone; cited from earlier work"}, "[10]": {"settings": "unconjugated MMAE, after first treatment cycle of 1.25 mg/kg, Days 1, 8 and 15"}},
  "note": "Square brackets hold non-standard residues; d marks the D form. Peptide text beside a SMILES is read from it. * marks the point of attachment. Dolaproine = CO[C@@H]([C@@H]1CCCN1)[C@@H](C)C(=O)O; Dil = CC[C@H](C)[C@H](NC)[C@@H](CC(=O)O)OC; X1 = C[C@@H](N*)[C@@H](O)c1ccccc1; NMeV = CN[C@H](C(=O)O)C(C)C",
  "data": [
    {"molecule": "Ha22-2(2,4)6.1-vcMMAE: 191P4D12 ADC: antibody Ha22-2(2,4)6.1 (murine hybridoma cell line-derived) conjugated to MMAE via vc linker", "values": [
      {"measurement": "growth of AG-L4 lung cancer xenografts", "setting": "[1]", "value": "significantly inhibited"},
      {"measurement": "growth of BT-483 breast tumor xenografts", "setting": "[2]", "value": "significantly inhibited"}
    ]},
    {"molecule": "CC[C@H](C)[C@@H]([C@@H](CC(=O)N1CCC[C@H]1[C@H](OC)[C@@H](C)C(=O)N[C@H](C)[C@@H](O)c1ccccc1)OC)N(C)C(=O)[C@@H](NC(=O)[C@@H](NC)C(C)C)C(C)C", "note": "[MMAE, monomethyl auristatin E] (H-[NMeV]V[Dil][Dolaproine]-X1)", "values": [
      {"measurement": "exposure (AUC) in mild, moderate or severe renal impairment", "setting": "[3]; 1.25 mg/kg, compared to normal renal function", "value": "No significant differences"},
      {"measurement": "AUC increase in mild hepatic impairment", "setting": "[3]; n=31, compared to normal hepatic function, population pharmacokinetics analysis", "value": 48, "unit": "%"},
      {"measurement": "accumulation following repeat administration", "setting": "[3]; patients", "value": "Minimal accumulation"},
      {"measurement": "elimination of MMAE", "setting": "[3]; patients", "value": "limited by its rate of release from enfortumab vedotin-ejfv"},
      {"measurement": "mean clearance (CL)", "setting": "[3]; patients", "value": 2.7, "unit": "L/h"},
      {"measurement": "steady-state concentrations reached after", "setting": "[3]; patients", "value": 1, "unit": "treatment cycle"},
      {"measurement": "time of peak MMAE concentrations after enfortumab vedotin-ejfv dosing", "setting": "[3]; patients", "value": "approximately 2 days"},
      {"measurement": "elimination half-life", "setting": "[3]; patients, multi-exponential declines", "value": 57.6, "unit": "h"},
      {"measurement": "AUC0-28 d, Mean (±SD)", "setting": "[3]; [10]", "value": "69 (42) ng · d/mL"},
      {"measurement": "Cmax, Mean (±SD)", "setting": "[3]; [10]", "value": "4.8 (2.7) ng/mL"},
      {"measurement": "Ctrough, 0-28 d (pre-dose concentration on day 28), Mean (±SD)", "setting": "[3]; [10]", "value": "0.57 (0.58) ng/mL"},
      {"measurement": "metabolism in vitro", "setting": "[4]", "value": "primarily metabolized by CYP3A4"},
      {"measurement": "P-gp inhibition", "setting": "[5]", "value": "not an inhibitor"},
      {"measurement": "P-gp substrate", "setting": "[5]", "value": "substrate"},
      {"measurement": "genotoxicity in rat bone marrow micronucleus study", "setting": "[6]", "value": "genotoxic"},
      {"measurement": "mutagenicity in Ames test", "setting": "[7]", "value": "not mutagenic"},
      {"measurement": "mutagenicity in L5178Y mouse lymphoma forward mutation assay", "setting": "[8]", "value": "not mutagenic"}
    ]},
    {"molecule": "CT-011: anti-PD-1 antibody, a humanized antibody", "values": [
      {"measurement": "response in acute myeloid leukemia (AML) at relapse", "setting": "[9]", "value": "failed to show response"}
    ]}
  ]
}
